Test results as given in patent US7084128B2, “Method for reducing intraocular pressure” (Inspire Pharmaceuticals, Inc., priority 2002, dated 2006).

What was measured:
[1] = system: intraocular pressure (IOP); conditions: New Zealand white rabbits; for time of maximal reduction in IOP: 0.25 mM topical single dose, IOP measured at 0.5, 1, 2 and 5 hours after application; for maximal reduction in IOP: 10 microliters of 0.25 mM in 0.9% saline, topical, unilateral, single dose, at time of maximal effect, n=4
Procedure: The actions of 2′-(O)-, 3′-(O)-(benzyl)methylenedioxy-adenosine-5′-triphosphate (Compound 1) and 2′-(O)-, 3′-(O)-(benzyl)methylenedioxy-2″-(O)-,3″-(O)-benzyl methylenedioxy-P^1, P^4-di(adenosine 5′-)tetraphosphate (Compound 2) on intraocular pressure (IOP) were assessed in New Zealand white rabbits.
Intraocular pressure measurements: IOP was measured using a TONOPEN contact tonometer supplied by MENTOR (USA). Ten microliters of the agents were applied topically and unilaterally to the cornea, whereas the contralateral eye received the same volume of saline solution. The corneas were anesthetized to avoid any discomfort associated with the use of the tonometer. Two measurements were made before application of the agents.
Pharmacological studies: Compounds were prepared at a concentration of 0.25 mM in 0.9% saline and intraocular pressure was measured at 0.5, 1, 2, and 5 hours after the application. A single dose was tested in a single animal on a single day.

intraocular pressure = conditions: literature (Peral et al. 2000; Pintor et al. 2000); cited from earlier work

| Compound | time of maximal reduction in IOP [1] | maximal reduction in IOP [1] | effect on intraocular pressure in rabbits (intraocular pressure) |
| --- | --- | --- | --- |
| Nc1ncnc2c1ncn2[C@@H]1O[C@H](COP(=O)(O)OP(=O)(O)OP(=O)(O)OP(=O)(O)OC[C@H]2O[C@@H](n3cnc4c(N)ncnc43)[C@@H]3OC(Cc4ccccc4)O[C@@H]32)[C@H]2OC(Cc3ccccc3)O[C@H]21 (stereo partly shown) [Compound 2, 2′-(O)-, 3′-(O)-(benzyl)methylenedioxy-2″-(O)-,3″-(O)-benzyl methylenedioxy-P^1, P^4-di(adenosine 5′-)tetraphosphate] | 1 h | 22% | – |
| Nc1ncnc2c1ncn2[C@@H]1O[C@H](COP(=O)(O)OP(=O)(O)CP(=O)(O)O)[C@@H](O)[C@H]1O [beta, gamma methylene adenosine triphosphate] | – | – | reduce intraocular pressure |
| 2′-(O)-, 3′-(O)-(benzyl)methylenedioxy-adenosine-5′-triphosphate [Compound 1] | 1 to 2 h | 21% | – |
| Nc1ncnc2c1ncn2[C@@H]1O[C@H](COP(=O)(O)CP(=O)(O)OP(=O)(O)O)[C@@H](O)[C@H]1O [Alpha, Beta-Methylene adenosine triphosphate] | – | – | reduce intraocular pressure |
| Nc1ncnc2c1ncn2[C@@H]1O[C@H](COP(=O)(O)OP(=O)(O)OP(=O)(O)OP(=O)(O)OC[C@H]2O[C@@H](n3cnc4c(N)ncnc43)[C@H](O)[C@@H]2O)[C@@H](O)[C@H]1O [Diadenosine tetraphosphate] | – | – | lower intraocular pressure |
